Reference: patent US20260240847A1, “COMPOUNDS WITH ANTI-TUMOR ACTIVITY AGAINST CANCER CELLS BEARING TYROSINE KINASE INHIBITOR RESISTANT EGFR MUTATIONS” (BOARD OF REGENTS, THE UNIVERSITY OF TEXAS SYSTEM, priority 2019, published 2026)
pIC50: −log10 of the molar value.

Legend:
Test in all cases: Ba/F3 cell viability, Cell Titer Glo
EGFR S720P = EGFR S720P (Homo sapiens, UniProt P00533, S720P); conditions: read-out: IC50 Values; Ba/F3 cells expressing EGFR S720P, 72 hours
Method: (§1) Cell viability was determined by the Cell Titer Glo assay.
(§2) Briefly, stable Ba/F3 cell lines were generated by retroviral transduction of Ba/F3 cell line for 12 hours. […] Three days after transduction, 2 μg/ml puromycin (Invitrogen) was added to the RPMI media. Cell lines were then grown in the absence of IL-3 for two weeks and cell viability was assessed every three days using the Cell Titer Glo assay (Progema).
(§3) Briefly, 2000-3000 cells per well were plated in 384-well plates (Greiner Bio-One) in technical triplicate. Cells were treated with seven different concentrations of tyrosine kinase inhibitors or vehicle alone at a final volume of 40 μL per well. After 3 days, 11 μL of Cell Titer Glo was added to each well. Plates were shaken for 15 minutes, and bioluminescence was determined using a FLUOstar OPTIMA multi-mode micro-plate reader (BMG LABTECH). Bioluminescence values were normalized to DMSO treated cells, and normalized values were plotted in GraphPad Prism using non-linear regression fit to normalized data with a variable slope.

EGFR L858R G796S = EGFR L858R G796S (Homo sapiens, UniProt P00533, G796S/L858R); conditions: read-out: IC50 Values; Ba/F3 cells expressing EGFR L858R G796S, 72 hours
Method: (§4) The transforming capability of the mutations was then evaluated by sustained cell viability following IL-3 deprivation. Activating EGFR mutant Ba/F3 cells were then screened against EGFR TKIs. Cell viability was determined by the Cell Titer Glo assay.
(§5) Ba/F3 cells expressing acquired atypical mutations spanning exons 18-21 were treated with inhibitors for 72 hours. […] Briefly, stable Ba/F3 cell lines were generated by retroviral transduction of Ba/F3 cell line for 12 hours. […] Three days after transduction, 2 μg/ml puromycin (Invitrogen) was added to the RPMI media. Cell lines were then grown in the absence of IL-3 for two weeks and cell viability was assessed every three days using the Cell Titer Glo assay (Progema).
as §3

EGFR L858R/T790M = EGFR L858R/T790M (Homo sapiens, UniProt P00533, L858R/T790M); conditions: read-out: IC50 Values; Ba/F3 cells expressing EGFR L858R/T790M, 72 hours
Method: as §1, §2, §3

EGFR K754E = EGFR K754E (Homo sapiens, UniProt P00533, K754E); conditions: read-out: IC50 Values; Ba/F3 cells expressing EGFR K754E, 72 hours
Method: as §1, §2, §3

EGFR l740duplPVAK = EGFR l740duplPVAK (Homo sapiens, UniProt P00533, DUP740-745); conditions: read-out: IC50 Values; Ba/F3 cells expressing EGFR l740duplPVAK, 72 hours
Method: as §1, §2, §3

EGFR Ex19del L718V = EGFR Ex19del L718V (Homo sapiens, UniProt P00533, DEL746-750/L718V); conditions: read-out: IC50 Values; Ba/F3 cells expressing EGFR Ex19del L718V, 72 hours
Method: as §4, §5, §3

EGFR R776H = EGFR R776H (Homo sapiens, UniProt P00533, R776H); conditions: read-out: IC50 Values; Ba/F3 cells expressing EGFR R776H, 72 hours
Method: as §1, §2, §3

EGFR Ex19del/T790M/G724S = EGFR Ex19del/T790M/G724S (Homo sapiens, UniProt P00533, DEL746-750/G724S/T790M); conditions: read-out: IC50 Values; Ba/F3 cells expressing EGFR Ex19del/T790M/G724S, 72 hours
Chain of EGFR Ex19del/T790M/G724S (P00533 with tags, fused parts or gaps G724S/DEL746-750/T790M): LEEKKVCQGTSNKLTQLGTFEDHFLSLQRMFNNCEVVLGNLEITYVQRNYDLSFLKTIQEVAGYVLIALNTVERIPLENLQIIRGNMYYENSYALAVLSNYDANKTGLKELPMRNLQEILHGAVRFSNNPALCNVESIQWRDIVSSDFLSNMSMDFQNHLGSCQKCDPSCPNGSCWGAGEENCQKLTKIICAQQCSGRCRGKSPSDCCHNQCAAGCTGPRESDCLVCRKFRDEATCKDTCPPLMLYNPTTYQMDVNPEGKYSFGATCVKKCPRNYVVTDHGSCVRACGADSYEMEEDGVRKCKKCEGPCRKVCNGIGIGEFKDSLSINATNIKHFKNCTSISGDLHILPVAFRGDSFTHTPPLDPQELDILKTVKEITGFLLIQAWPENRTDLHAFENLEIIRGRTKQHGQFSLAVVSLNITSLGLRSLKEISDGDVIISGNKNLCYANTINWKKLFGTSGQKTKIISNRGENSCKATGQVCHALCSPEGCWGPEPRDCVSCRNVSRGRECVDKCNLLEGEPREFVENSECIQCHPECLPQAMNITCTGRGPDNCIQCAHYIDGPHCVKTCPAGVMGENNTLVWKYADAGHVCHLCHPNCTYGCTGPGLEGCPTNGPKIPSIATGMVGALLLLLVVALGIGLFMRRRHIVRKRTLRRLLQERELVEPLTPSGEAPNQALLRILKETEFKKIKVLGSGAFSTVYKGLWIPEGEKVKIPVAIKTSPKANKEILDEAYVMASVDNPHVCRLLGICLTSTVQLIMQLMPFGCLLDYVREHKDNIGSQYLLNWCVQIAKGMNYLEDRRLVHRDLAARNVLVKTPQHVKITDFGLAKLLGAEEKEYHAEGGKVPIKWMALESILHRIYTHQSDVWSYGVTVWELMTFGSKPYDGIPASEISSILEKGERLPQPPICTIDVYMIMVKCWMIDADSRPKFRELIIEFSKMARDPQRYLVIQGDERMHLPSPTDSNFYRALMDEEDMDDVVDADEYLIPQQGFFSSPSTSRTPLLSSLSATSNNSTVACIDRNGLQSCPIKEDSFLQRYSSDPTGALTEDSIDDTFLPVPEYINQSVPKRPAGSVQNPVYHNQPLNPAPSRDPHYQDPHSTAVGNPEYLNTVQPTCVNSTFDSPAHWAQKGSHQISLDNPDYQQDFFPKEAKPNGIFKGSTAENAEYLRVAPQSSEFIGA
Method: as §1, §3

EGFR S768I V774M = EGFR S768I V774M (Homo sapiens, UniProt P00533, S768I/V774M); conditions: read-out: IC50 Values; Ba/F3 cells expressing EGFR S768I V774M, 72 hours
Chain of EGFR S768I V774M (P00533 25-1210 S768I/V774M): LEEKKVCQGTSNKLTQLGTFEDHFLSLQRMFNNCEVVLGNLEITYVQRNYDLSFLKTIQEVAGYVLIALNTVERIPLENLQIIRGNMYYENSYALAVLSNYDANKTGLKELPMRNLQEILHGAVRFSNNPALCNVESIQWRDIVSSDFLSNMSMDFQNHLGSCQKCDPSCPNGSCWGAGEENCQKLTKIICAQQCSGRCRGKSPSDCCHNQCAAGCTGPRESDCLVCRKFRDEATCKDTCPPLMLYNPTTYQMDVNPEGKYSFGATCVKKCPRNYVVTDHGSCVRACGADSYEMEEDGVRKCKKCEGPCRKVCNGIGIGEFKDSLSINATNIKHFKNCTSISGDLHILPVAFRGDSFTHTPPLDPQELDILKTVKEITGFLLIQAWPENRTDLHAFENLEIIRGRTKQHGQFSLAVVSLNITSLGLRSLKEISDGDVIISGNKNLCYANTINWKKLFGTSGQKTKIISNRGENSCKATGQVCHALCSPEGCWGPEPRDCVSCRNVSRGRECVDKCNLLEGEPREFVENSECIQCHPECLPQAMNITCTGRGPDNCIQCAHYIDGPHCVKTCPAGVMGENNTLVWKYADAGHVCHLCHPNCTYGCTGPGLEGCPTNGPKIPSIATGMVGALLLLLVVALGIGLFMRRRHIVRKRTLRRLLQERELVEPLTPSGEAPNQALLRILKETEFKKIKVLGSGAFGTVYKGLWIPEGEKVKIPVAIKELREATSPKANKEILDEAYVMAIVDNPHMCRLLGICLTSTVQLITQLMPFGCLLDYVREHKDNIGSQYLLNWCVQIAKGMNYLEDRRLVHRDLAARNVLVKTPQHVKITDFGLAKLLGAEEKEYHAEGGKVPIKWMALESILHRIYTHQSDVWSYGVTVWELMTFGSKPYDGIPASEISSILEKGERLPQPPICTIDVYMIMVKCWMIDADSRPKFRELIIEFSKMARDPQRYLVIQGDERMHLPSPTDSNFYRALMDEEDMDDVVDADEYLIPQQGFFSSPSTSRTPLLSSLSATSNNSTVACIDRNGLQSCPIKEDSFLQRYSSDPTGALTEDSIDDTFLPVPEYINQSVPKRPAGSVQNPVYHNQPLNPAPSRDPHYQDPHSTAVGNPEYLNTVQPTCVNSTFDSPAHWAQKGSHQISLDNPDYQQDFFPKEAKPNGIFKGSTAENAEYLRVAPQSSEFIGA
Method: as §1, §2, §3

EGFR N771dupN G724S = EGFR N771dupN G724S (Homo sapiens, UniProt P00533, DUP771-771/G724S); conditions: read-out: IC50 Values; Ba/F3 cells expressing EGFR N771dupN G724S, 72 hours
Method: as §1, §2, §3

EGFR D770insNPG = EGFR D770insNPG (Homo sapiens, UniProt P00533, INS770NPG); conditions: read-out: IC50 Values; Ba/F3 cells expressing EGFR D770insNPG, 72 hours
Method: as §1, §2, §3

EGFR L747S = EGFR L747S (Homo sapiens, UniProt P00533, L747S); conditions: read-out: IC50 Values; Ba/F3 cells expressing EGFR L747S, 72 hours
Method: as §1, §2, §3

EGFR L858R G724S = EGFR L858R G724S (Homo sapiens, UniProt P00533, G724S/L858R); conditions: read-out: IC50 Values; Ba/F3 cells expressing EGFR L858R G724S, 72 hours
Chain of EGFR L858R G724S (P00533 25-1210 G724S/L858R): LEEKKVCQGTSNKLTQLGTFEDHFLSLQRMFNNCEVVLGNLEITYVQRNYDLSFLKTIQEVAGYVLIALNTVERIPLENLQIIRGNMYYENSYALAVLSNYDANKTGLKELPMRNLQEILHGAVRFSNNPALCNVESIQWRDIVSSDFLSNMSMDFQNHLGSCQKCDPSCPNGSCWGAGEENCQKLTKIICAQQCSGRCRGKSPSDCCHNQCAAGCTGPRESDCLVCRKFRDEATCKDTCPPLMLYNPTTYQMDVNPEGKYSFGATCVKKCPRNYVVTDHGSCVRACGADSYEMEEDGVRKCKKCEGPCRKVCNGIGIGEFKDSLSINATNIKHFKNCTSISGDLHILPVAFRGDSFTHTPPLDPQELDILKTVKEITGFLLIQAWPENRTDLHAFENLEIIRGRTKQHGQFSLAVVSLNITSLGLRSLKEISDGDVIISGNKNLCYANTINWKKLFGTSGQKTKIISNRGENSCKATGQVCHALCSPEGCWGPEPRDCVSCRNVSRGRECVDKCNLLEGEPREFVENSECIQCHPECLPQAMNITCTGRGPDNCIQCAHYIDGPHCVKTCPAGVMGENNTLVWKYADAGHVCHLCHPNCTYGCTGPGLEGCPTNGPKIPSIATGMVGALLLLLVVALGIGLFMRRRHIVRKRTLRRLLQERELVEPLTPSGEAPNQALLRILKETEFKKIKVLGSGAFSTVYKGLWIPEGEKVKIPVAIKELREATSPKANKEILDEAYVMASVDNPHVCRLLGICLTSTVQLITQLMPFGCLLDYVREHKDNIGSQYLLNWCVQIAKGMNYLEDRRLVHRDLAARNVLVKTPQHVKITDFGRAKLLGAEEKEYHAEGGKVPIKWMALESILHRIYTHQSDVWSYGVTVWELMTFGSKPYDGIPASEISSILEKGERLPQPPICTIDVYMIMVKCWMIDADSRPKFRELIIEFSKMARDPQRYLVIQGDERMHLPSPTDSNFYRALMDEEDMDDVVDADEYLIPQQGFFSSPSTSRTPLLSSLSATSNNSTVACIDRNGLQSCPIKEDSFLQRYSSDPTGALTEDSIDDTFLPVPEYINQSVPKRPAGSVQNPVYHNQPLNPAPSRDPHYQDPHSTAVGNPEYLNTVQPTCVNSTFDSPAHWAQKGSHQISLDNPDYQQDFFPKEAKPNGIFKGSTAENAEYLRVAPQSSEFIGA
Method: as §4, §5, §3

EGFR L858R S784F = EGFR L858R S784F (Homo sapiens, UniProt P00533, L858R/S784F); conditions: read-out: IC50 Values; Ba/F3 cells expressing EGFR L858R S784F, 72 hours
Method: as §4, §5, §3

EGFR S768dupSVD = EGFR S768dupSVD (Homo sapiens, UniProt P00533, DUP768-770); conditions: read-out: IC50 Values; Ba/F3 cells expressing EGFR S768dupSVD, 72 hours
Chain of EGFR S768dupSVD (P00533 with tags, fused parts or gaps DUP768-770): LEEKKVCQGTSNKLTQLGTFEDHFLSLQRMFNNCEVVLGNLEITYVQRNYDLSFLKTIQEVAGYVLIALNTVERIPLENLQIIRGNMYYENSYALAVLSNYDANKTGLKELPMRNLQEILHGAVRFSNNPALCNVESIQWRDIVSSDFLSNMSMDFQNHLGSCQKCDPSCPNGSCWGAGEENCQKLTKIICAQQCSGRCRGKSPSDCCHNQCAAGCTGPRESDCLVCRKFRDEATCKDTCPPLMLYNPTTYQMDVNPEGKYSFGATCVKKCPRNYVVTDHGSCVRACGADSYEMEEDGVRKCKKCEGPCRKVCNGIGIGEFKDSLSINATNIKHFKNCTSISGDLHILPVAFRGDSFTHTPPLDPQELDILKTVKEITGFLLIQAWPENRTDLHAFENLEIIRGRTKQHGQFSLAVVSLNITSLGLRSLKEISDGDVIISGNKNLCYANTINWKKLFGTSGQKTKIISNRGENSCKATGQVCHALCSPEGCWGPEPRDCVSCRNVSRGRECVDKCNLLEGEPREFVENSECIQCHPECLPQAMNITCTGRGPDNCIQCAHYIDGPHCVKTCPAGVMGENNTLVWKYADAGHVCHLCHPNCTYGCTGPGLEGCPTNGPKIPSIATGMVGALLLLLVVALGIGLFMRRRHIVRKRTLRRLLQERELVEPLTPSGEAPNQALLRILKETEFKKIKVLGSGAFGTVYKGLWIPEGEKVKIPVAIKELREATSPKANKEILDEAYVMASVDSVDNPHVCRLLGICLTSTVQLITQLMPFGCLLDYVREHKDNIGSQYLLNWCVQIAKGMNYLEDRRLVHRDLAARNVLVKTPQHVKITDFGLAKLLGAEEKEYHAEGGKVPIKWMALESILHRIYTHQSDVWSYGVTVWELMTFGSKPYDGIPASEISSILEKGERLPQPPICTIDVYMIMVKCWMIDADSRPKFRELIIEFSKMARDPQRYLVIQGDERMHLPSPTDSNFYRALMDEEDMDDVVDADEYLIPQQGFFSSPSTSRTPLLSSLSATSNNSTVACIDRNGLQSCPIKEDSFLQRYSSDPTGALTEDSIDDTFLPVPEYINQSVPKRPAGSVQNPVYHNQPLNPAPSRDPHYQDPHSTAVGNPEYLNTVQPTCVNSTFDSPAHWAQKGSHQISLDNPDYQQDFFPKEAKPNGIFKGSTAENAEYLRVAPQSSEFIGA
Method: as §1, §2, §3

EGFR L858R/C797S = EGFR L858R/C797S (Homo sapiens, UniProt P00533, C797S/L858R); conditions: read-out: IC50 Values; Ba/F3 cells expressing EGFR L858R/C797S, 72 hours
Method: as §4, §5, §3

EGFR L858R T790M/C797S = EGFR L858R T790M/C797S (Homo sapiens, UniProt P00533, C797S/L858R/T790M); conditions: read-out: IC50 Values; Ba/F3 cells expressing EGFR L858R T790M/C797S, 72 hours
Method: as §1, §2, §3

EGFR Ex19del G796S = EGFR Ex19del G796S (Homo sapiens, UniProt P00533, DEL746-750/G796S); conditions: read-out: IC50 Values; Ba/F3 cells expressing EGFR Ex19del G796S, 72 hours
Method: as §4, §5, §3

EGFR Ex19delT854l = EGFR Ex19delT854l (Homo sapiens, UniProt P00533, DEL746-750/T854I); conditions: read-out: IC50 Values; Ba/F3 cells expressing EGFR Ex19delT854l, 72 hours
Method: as §4, §5, §3

EGFR G719A = EGFR G719A (Homo sapiens, UniProt P00533, G719A); conditions: read-out: IC50 Values; Ba/F3 cells expressing EGFR G719A, 72 hours
Method: as §1, §3

With C=CC(=O)N1CC[C@@H](Oc2nc(Nc3ccc(N4CCC(N5CCN(C)CC5)CC4)cc3)c(C(N)=O)nc2CC)C1 [Naquotinib] the pIC50 (EGFR S720P) was 7.28, the pIC50 (EGFR L858R G796S) was 6.37 and the pIC50 (EGFR L858R/T790M) was 8.73. The pIC50 (EGFR K754E) was 7.18, the pIC50 (EGFR l740duplPVAK) was 7.17 and the pIC50 (EGFR Ex19del L718V) was 7.86. It also gave a pIC50 (EGFR R776H) of 7.16, a pIC50 (EGFR Ex19del/T790M/G724S) of 8.42 and a pIC50 (EGFR S768I V774M) of 7.18. For the same molecule, the pIC50 (EGFR N771dupN G724S) was 6.43, the pIC50 (EGFR D770insNPG) was 6.76 and the pIC50 (EGFR L747S) was 6.92. The pIC50 (EGFR L858R G724S) was 6.96, the pIC50 (EGFR L858R S784F) was 6.45 and the pIC50 (EGFR S768dupSVD) was 6.82. It also gave a pIC50 (EGFR L858R/C797S) of 6.15, a pIC50 (EGFR L858R T790M/C797S) of 5.36 and a pIC50 (EGFR Ex19del G796S) of 7.27. The pIC50 (EGFR Ex19delT854l) was 6.95 and the pIC50 (EGFR G719A) was 7.74.
